This is an account of results in patent US9090571B2, “Meglumine salt of 6-fluoro-3-hydroxy-2-pyrazine carboxamide” (TOYAMA CHEMICAL CO., LTD., priority 2010, dated 2015).

A short description of the data set: Solubility in water (statement). In kind it is physicochemical.

Molecules are shown by their SMILES.

In the case of `NC(=O)c1nc(F)c[nH]c1=O` [Compound A, 6-fluoro-3-hydroxy-2-pyrazinecarboxamide], the solubility in water entry was “low solubility in water”.

With `CNC[C@H](O)[C@@H](O)[C@H](O)[C@H](O)CO.NC(=O)c1nc(F)cnc1O` [Salt A, meglumine salt of 6-fluoro-3-hydroxy-2-pyrazinecarboxamide], the solubility in water entry was “high”.
